The values below are quoted from earlier work in patent publication US20110268669A1, “COMPOSITION AND METHOD FOR TREATING EUSTACHIAN TUBE DYSFUNCTION” (priority 2010, published 2011).

The conditions of the series: taken as a chewing gum.

With `OC[C@@H](O)[C@H](O)[C@@H](O)CO` [Xylitol], the “prevention of otitis media” value is listed as “shown to prevent otitis media”.
